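Results reflect a 48-hour exposure of cells in 96-well plates to compound at five concentrations. TGI marks complete inhibition of growth.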
Columns and labels:
Test in all cases: growth of human tumour cells (NCI), 48 h
UO-31 renal = tested on: UO-31 renal
HL-60(TB) leukemia = tested on: HL-60(TB) leukemia
HCC-2998 colon = tested on: HCC-2998 colon
PC-3 prostate = tested on: PC-3 prostate
KM12 colon = tested on: KM12 colon
UACC-62 melanoma = tested on: UACC-62 melanoma
SNB-19 CNS = tested on: SNB-19 CNS
SK-OV-3 ovarian = tested on: SK-OV-3 ovarian
U251 CNS = tested on: U251 CNS
OVCAR-8 ovarian = tested on: OVCAR-8 ovarian
MALME-3M melanoma = tested on: MALME-3M melanoma
SR leukemia = tested on: SR leukemia

Compound	TGI (UO-31 renal)	TGI (HL-60(TB) leukemia)	TGI (HCC-2998 colon)	TGI (PC-3 prostate)	TGI (KM12 colon)	TGI (UACC-62 melanoma)	TGI (SNB-19 CNS)	TGI (SK-OV-3 ovarian)	TGI (U251 CNS)	TGI (OVCAR-8 ovarian)	TGI (MALME-3M melanoma)	TGI (SR leukemia)
C=C1N(C)c2ccc(S(=O)(=O)c3ccc4c(c3)C(C)(C)C(=C)N4C)cc2C1(C)C	> 100 µM	> 100 µM	> 100 µM	> 100 µM	> 100 µM	> 100 µM	> 100 µM	> 100 µM	> 100 µM	> 100 µM	79 µM	–
O=C1C(Cl)C(c2ccc(O)cc2)N1n1cnc2ccccc2c1=O (configuration not stated)	> 100 µM	72.3 µM	> 100 µM	–	> 100 µM	48.4 µM	> 100 µM	> 100 µM	> 100 µM	26 µM	> 83.9 µM	69.8 µM
Cc1cc2c(cc1Cl)SC(NNCCO)=NS2(=O)=O	> 100 µM	> 100 µM	> 100 µM	> 100 µM	> 100 µM	> 100 µM	> 100 µM	> 100 µM	> 100 µM	> 100 µM	–	> 100 µM
CN1CCCS/C1=C1/SC(=S)N(c2ccccc2)C1=O	> 100 µM	> 100 µM	–	–	> 100 µM	> 100 µM	> 100 µM	> 100 µM	> 100 µM	> 100 µM	> 100 µM	> 100 µM
CN1N=C(c2ccncc2)OC1c1cccc(F)c1 (configuration not stated)	> 100 µM	> 100 µM	> 100 µM	> 100 µM	> 100 µM	> 100 µM	> 100 µM	> 100 µM	> 100 µM	> 100 µM	–	–
CC(=Nc1ccc(Cl)cc1)c1ccncc1	> 100 µM	–	> 100 µM	> 100 µM	> 100 µM	–	> 100 µM	–	> 100 µM	> 100 µM	> 100 µM	–
CC(C)=CCC/C(C)=C/Cc1c2c(c3oc(-c4ccc(O)c(O)c4)c(O)c(=O)c3c1O)C=CC(C)(C)O2	10.2 µM	6.29 µM	–	12.5 µM	9.89 µM	12.4 µM	12.5 µM	8.65 µM	10.7 µM	7.92 µM	4.01 µM	6.94 µM
O=C(Nn1c(-c2ccccc2)nc2ccccc2c1=O)c1cccc([N+](=O)[O-])c1	> 100 µM	> 100 µM	> 100 µM	> 100 µM	> 100 µM	> 100 µM	> 100 µM	> 100 µM	> 100 µM	> 100 µM	–	> 100 µM
O=c1[nH]c(=O)n([C@H]2C[C@@H](CO)[C@@H](O)C2)cc1I	> 100 µM	> 100 µM	> 100 µM	–	> 100 µM	> 100 µM	> 100 µM	> 100 µM	> 100 µM	> 100 µM	> 100 µM	–
C1=NN2C(c3ccccc3)=NOC2C2C(c3ccccc3)=NOC12 (configuration not stated)	> 100 µM	–	> 100 µM	> 100 µM	> 100 µM	> 100 µM	> 100 µM	> 100 µM	–	> 100 µM	> 100 µM	–
COC(=O)C(=O)C(C(=O)OC)C(=O)C(=O)Nc1cc(Cl)c(C)cc1S(=O)(=O)O (configuration not stated)	> 100 µM	> 100 µM	> 100 µM	–	> 100 µM	> 100 µM	> 100 µM	> 100 µM	> 100 µM	> 100 µM	> 100 µM	> 100 µM
N#Cc1c(C#N)c(SSc2c(C#N)c(C#N)c(N)n2-c2cccc3ccccc23)n(-c2cccc3ccccc23)c1N	6.02 µM	–	85.8 µM	35.5 µM	> 100 µM	46.6 µM	46.4 µM	54.8 µM	40 µM	> 25.3 µM	3.4 µM	–
Cn1c2ncccc2n2c(=O)cc(O)cc12	> 100 µM	–	> 100 µM	> 100 µM	> 100 µM	> 100 µM	> 100 µM	> 100 µM	> 100 µM	> 100 µM	> 100 µM	> 100 µM
COc1nc(=O)[nH]c2c1C(c1ccc([N+](=O)[O-])cc1)c1c(OC)nc(=O)[nH]c1O2	> 100 µM	> 100 µM	–	> 100 µM	> 100 µM	> 100 µM	> 100 µM	> 100 µM	> 100 µM	> 100 µM	–	–
Cc1c(-c2coc(-c3ccc([N+](=O)[O-])cc3)n2)c(=O)n(-c2ccccc2)n1C	> 100 µM	> 100 µM	> 100 µM	–	> 100 µM	> 100 µM	–	> 100 µM	> 100 µM	> 100 µM	> 100 µM	–
N#CCCC(C#N)(C#N)CCC#N	> 100 µM	> 100 µM	> 100 µM	–	> 100 µM	> 100 µM	> 100 µM	> 100 µM	> 100 µM	> 100 µM	> 100 µM	> 100 µM
Nc1c(S(=O)(=O)O)cc(S(=O)(=O)O)c2ccc(N=Nc3ccccc3)c(O)c12	> 100 µM	> 100 µM	–	> 100 µM	> 100 µM	> 100 µM	> 100 µM	> 100 µM	> 100 µM	> 100 µM	> 100 µM	> 100 µM
COP12(OC)NC(=O)OC1(C(F)(F)F)c1ccccc1O2 (configuration not stated)	–	> 100 µM	–	–	> 100 µM	> 100 µM	> 100 µM	> 100 µM	–	> 100 µM	> 100 µM	–
CCOC(=O)/C(C1=NCCN1C)=C(\O)c1ccccc1	> 100 µM	> 100 µM	> 100 µM	–	> 100 µM	> 100 µM	> 100 µM	–	> 100 µM	> 100 µM	> 100 µM	> 100 µM
N#Cc1ccc(C2OCC3CC=CCC3CO2)cc1 (configuration not stated)	> 100 µM	94.9 µM	> 100 µM	–	> 100 µM	> 100 µM	> 100 µM	> 100 µM	> 100 µM	> 100 µM	> 100 µM	> 100 µM
CCCCC/C=C\C=C\CCCCCCCCC(=O)OC	31.3 µM	> 100 µM	–	> 100 µM	> 100 µM	–	> 100 µM	> 100 µM	> 100 µM	> 100 µM	> 100 µM	> 100 µM

Compound	TGI (UO-31 renal)	TGI (HL-60(TB) leukemia)	TGI (HCC-2998 colon)	TGI (PC-3 prostate)	TGI (KM12 colon)	TGI (UACC-62 melanoma)	TGI (SNB-19 CNS)	TGI (SK-OV-3 ovarian)	TGI (U251 CNS)	TGI (OVCAR-8 ovarian)	TGI (MALME-3M melanoma)	TGI (SR leukemia)
c1cc2c(cc1C1OCC3C(c4ccc5c(c4)OCO5)OCC13)OCO2 (configuration not stated)	> 100 µM	–	> 100 µM	–	> 100 µM	> 100 µM	> 100 µM	> 100 µM	> 100 µM	> 100 µM	> 100 µM	–
COc1ccc(/C=C2/SC(=Nc3ccccc3)N(NC(=O)Cc3ccccc3)C2=O)cc1	> 100 µM	> 100 µM	> 100 µM	–	> 100 µM	> 100 µM	> 100 µM	> 100 µM	> 100 µM	> 100 µM	–	–
O=C(c1ccccc1)c1ccc(N2C(=O)/C(=C/c3ccccc3S)N=C2c2ccccc2)c(N2C(=O)/C(=C/c3ccccc3S)N=C2c2ccccc2)c1	> 100 µM	> 100 µM	> 100 µM	> 100 µM	> 100 µM	> 100 µM	> 100 µM	> 100 µM	> 100 µM	88.6 µM	–	> 100 µM
CO[P@@]1(=O)O[C@@H](c2ccccc2)[C@H](O)[C@@]1(O)c1ccccc1	> 100 µM	> 100 µM	–	> 100 µM	> 100 µM	> 100 µM	> 100 µM	> 100 µM	> 100 µM	> 100 µM	> 100 µM	74.7 µM
Cc1cn(CC(=S)NCCc2c[nH]c3ccccc23)c(=O)[nH]c1=O	> 100 µM	> 100 µM	–	> 100 µM	> 100 µM	> 100 µM	> 100 µM	> 100 µM	> 100 µM	–	> 100 µM	> 100 µM
CN1CCS(=O)(=O)NC(Cc2ccccc2)C(=O)N2CCCC2C1=O (configuration not stated)	> 100 µM	> 100 µM	> 100 µM	–	> 100 µM	> 100 µM	> 100 µM	> 100 µM	> 100 µM	> 100 µM	> 100 µM	–
CC(C)CCNC(=O)c1ccc(CNC(=O)/C=C/c2ccc3ccccc3c2)cc1	> 100 µM	> 100 µM	> 100 µM	> 100 µM	> 100 µM	> 100 µM	> 100 µM	> 100 µM	> 100 µM	> 100 µM	–	> 100 µM
COc1ccccc1N1CCN(S(=O)(=O)c2ccc(Cl)cc2)C1=N	> 100 µM	–	–	> 100 µM	> 100 µM	> 100 µM	> 100 µM	> 100 µM	> 100 µM	> 100 µM	–	–
Nc1ccc(Oc2ccc(C34CC5C6CC7(c8ccc(Oc9ccc(N)cc9)cc8)CC5C(C3)C(C7)C6C4)cc2)cc1	> 100 µM	> 100 µM	–	> 100 µM	> 100 µM	> 100 µM	> 100 µM	–	> 100 µM	> 100 µM	> 100 µM	–
COc1cc2ccnc(C#N)c2cc1OCc1ccccc1	> 100 µM	–	> 100 µM	–	> 100 µM	–	> 100 µM	–	> 100 µM	> 100 µM	> 100 µM	–
N#CCCC1(CCC#N)S(=O)(=O)OCCOS1(=O)=O	> 100 µM	69.4 µM	–	> 100 µM	> 100 µM	> 100 µM	> 100 µM	> 100 µM	> 100 µM	> 100 µM	> 100 µM	> 100 µM
CCC1(c2ccc(OC)c(OC)c2)CCN(S(=O)(=O)c2ccc(C)cc2)C1 (configuration not stated)	> 100 µM	–	> 100 µM	> 100 µM	> 100 µM	> 100 µM	> 100 µM	> 100 µM	> 100 µM	–	–	> 10 µM
COc1cc2c(cc1NC(=O)c1ccccc1)c1c(n2S(=O)(=O)c2ccccc2)CCN(S(=O)(=O)c2ccccc2)C1	–	> 100 µM	> 100 µM	> 100 µM	> 100 µM	> 100 µM	> 100 µM	> 100 µM	> 100 µM	> 100 µM	–	> 100 µM
NC(=O)C1=C(O)[C@@]2(O)C(=O)C3=C(O)c4c(O)cccc4CC3C[C@H]2CC1=O (some centres not stated)	10.5 µM	14.9 µM	16.1 µM	9.71 µM	23.4 µM	8.61 µM	10.9 µM	> 28.7 µM	12.8 µM	17.3 µM	5.23 µM	–
CN1C(=O)C(=Cc2ccc(Br)cc2)C(=O)N(C)C1=O	> 100 µM	–	> 100 µM	> 100 µM	> 100 µM	> 100 µM	> 100 µM	> 100 µM	> 100 µM	–	–	–
Cc1nn(CNc2ccc(F)c(Cl)c2)c(=S)n1/N=C/c1ccc(-c2ccc(Cl)cc2Cl)o1	32.2 µM	16.9 µM	–	30.9 µM	55.7 µM	–	–	33.2 µM	29 µM	48.5 µM	–	14.7 µM
CCOC(=O)/C=C(/C(=O)OCC)n1ccc(=O)n(Cc2cn(CCCCOC(C)=O)nn2)c1=O	> 100 µM	–	> 100 µM	> 100 µM	> 100 µM	> 100 µM	> 100 µM	> 100 µM	> 100 µM	> 100 µM	–	> 100 µM
COc1ccc2c(O)c1-c1c(OC)ccc(c1O)SSc1ccc(OC)c(c1O)-c1c(OC)ccc(c1O)SS2	14 µM	> 100 µM	–	26.4 µM	> 100 µM	–	> 100 µM	> 100 µM	69 µM	> 100 µM	> 100 µM	21.5 µM
COC1(OC)CCN(Cc2ccccc2)C1=O	22.8 µM	4.15 µM	34 µM	27.8 µM	32.2 µM	26.1 µM	34.9 µM	> 100 µM	34.1 µM	17.9 µM	> 100 µM	–
CC(C)(C)OC(=O)N(O)CCCn1cnc2c(NC3CC3)ncnc21	> 100 µM	–	> 100 µM	> 100 µM	> 100 µM	> 100 µM	> 100 µM	> 100 µM	> 100 µM	> 100 µM	> 100 µM	> 100 µM
CCn1c2ccccc2c2ccc(C3C4C(=O)N(c5cccc6ccccc56)C(=O)C4ON3C(C(N)=O)c3ccccc3)cc21 (configuration not stated)	> 25 µM	> 25 µM	–	> 25 µM	> 25 µM	> 25 µM	> 25 µM	> 25 µM	> 25 µM	> 25 µM	> 25 µM	> 25 µM
